According to patent US8841285B2, “Potent immunosuppressive agents, derivatives and uses” (priority 2002, dated 2014):

Columns and labels:
MCF-7 cells = test: cell proliferation assay, MCF-7 cells; type: cell-based; conditions: MCF-7 cells (FIG. 13)
Description: Cell Proliferation Assay. 1×10^5 of indicated cells in each well of a 96-well plate were treated with indicated compounds for 24 h followed by addition of 0.11 μCi of [^3H]-thymidine (6.7 Ci/mmol) per well for 6 h, followed by harvesting to GF/C filtermats using a cell harvester. Filtermats were air-dried and scintillation counted. IC50s were determined from quadruplicate data readings and curve-fitting analysis.

[1] = test system: HCV IRES-mediated translation; test: in vitro translation in RRL, HCV IRES cistron; type: biochemical, rabbit; conditions: 100 nM
Description: (§1) In vitro Translation and Transcription. pSP/(CAG)33/FF/HCV/Ren·pA51 and pKS/FF/EMC/Ren were linearized by BamHI, then purified by phenol:chloroform extraction and ethanol precipitation, and dissolved in water. pSP/(CAG)33/FF/HCV/Ren·A51 and pKS/FF/EMC/Ren were individually transcribed using a large scale RNA production system in the presence of m7Gppp cap analog followed by incubation with DNase as described by the manufacturer. Resulting RNA was purified using a kit as described by the manufacturer. Translation was performed using a rabbit reticulocyte lysate system as per instructions. Briefly, 200 ng of purified RNA was combined in a 20 μl reaction containing 10 μl RRL, 0.2 μl each of minus Met and minus Leu amino acid mixtures, 70 mM KCl, 2 mM DTT, 1× translation buffer, and 10 units of RNasin. Compounds or DMSO were added to a final DMSO concentration of 2%. Reactions were incubated at 30° C. for 1.5 h, then 5 μl of the reaction mixture was assayed for luciferase activity as per instructions of luciferas reporter assay system.

[2] = test system: EMCV IRES mediated initiation; test: in vitro translation in RRL, EMCV IRES cistron; type: biochemical, rabbit; conditions: EMCV IRES bicistronic reporter
Description: as §1

293T cells = test: cellular polyribosome profiles; type: cell-based; conditions: 30 min treatment
Description: Cellular polyribosome profiles. 293T cells were treated as indicated for 30 min. Cells were washed twice with ice-cold PBS and pipetted for 5 min in 500 μl of chilled TMK100 buffer (20 mM Tris-HCl pH 7.4, 5 mM MgCl2 100 mM KCl, 2 mM DTT, 1% Triton X-100 and 100 U/ml RNAsin in DEPC water). After clearing at 10,000×g (10 min) at 4° C., the supernatant (S10) was layered onto 11 ml, 15-45% linear sucrose gradient containing 20 mM HEPES pH 7.4, 100 mM KCl, 5 mM MgCl2 and 2 mM DTT. Ultracentrifugation at 40,000 rpm for 1.5 h at 4° C. was performed in a suitable rotor. Fractions were collected from the top of the gradient by injection of Flurinert FC-40 from bottom of centrifuge tube. Gradient profiles were monitored at 254 nm. For immunoblotting, 7 mg of total protein were processed as described above, followed by collection of 500 μl fractions were collected from the top. 100 μl aliquots of each were boiled in SDS sample buffer, followed by SDS-PAGE and immunoblotting.

eIF4AI = target: T1, eIF4AI (Homo sapiens, UniProt P60842); test: ATP-dependent RNA helicase activity of 6XHis-eIF4AI; type: biochemical
T1 construct: The entire ORF of human eIF4AI was ligated in-frame into the BamHI and HindIII sites of the pET-28a expression vector; 6XHis (N); made in house; host or cells: E. coli BL21(DE3)
Description: Recombinant proteins. The entire ORF of human eIF4AI was ligated in-frame into the BamHI and HindIII sites of the pET-28a expression vector after PCR amplification from HeLa cells. Protein was produced in BL21(DE3) E. coli cultured in LB medium by induction with 1 mM IPTG for 6 h at 37° C. Cells were lysed by sonication and protein was purified using Ni-NTA resin as described by the manufacturer. For pET(His6-eIF4B), induction conditions were for 72 h at 16° C. Purification included a 1 ml Heparin column with a linear KCl gradient (50-500 mM).
ATPase and Helicase. ATPase activity was performed as described (Korneeva et al., 2005) with minor modifications. Reactions contained 2.5% DMSO, 6XHis-eIF4AI concentration was 0.56 μM, and reaction time was 10 min at 37° C. in buffer: 20 mM Tris-HCl, pH 7.5, 0.5 mM MgCl2, 100 mM KCl, 2 mM DTT, 0.1% (v/v) Tween 20, 10% (v/v) glycerol, 1 mg/ml BSA, and reactions were supplemented with 3-5 μCi of [γ-^32P]-ATP (6000 Ci/mmol). Saturating poly(U) concentrations were 1239 μM (nucleotides/20). Released phosphate was visualized on 15% native TBE polyacrylamide gels followed by autoradiography of wet gels (30 min exposure). Film was aligned with gels and spots were excised and ^32P levels were quantified by scintillation counting. Km and Vmax were determined by curve fitting. […]

T1 sequence (P60842 whole entry): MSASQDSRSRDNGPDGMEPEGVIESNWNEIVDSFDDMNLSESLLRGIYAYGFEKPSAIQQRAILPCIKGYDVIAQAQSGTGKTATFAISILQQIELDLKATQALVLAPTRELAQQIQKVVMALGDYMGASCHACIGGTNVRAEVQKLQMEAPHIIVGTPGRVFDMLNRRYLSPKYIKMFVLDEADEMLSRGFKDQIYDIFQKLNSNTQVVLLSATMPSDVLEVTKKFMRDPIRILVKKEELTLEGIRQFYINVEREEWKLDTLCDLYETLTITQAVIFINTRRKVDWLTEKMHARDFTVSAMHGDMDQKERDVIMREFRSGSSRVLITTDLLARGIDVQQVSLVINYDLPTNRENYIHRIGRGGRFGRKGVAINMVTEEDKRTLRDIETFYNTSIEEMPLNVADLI

## CC(/C=C/C(C)=C/[C@@H]1Cc2nc(cs2)[C@@H](C)C[C@@H](N)CC(=O)O[C@@H](C)C/C(C)=C/C=C\C(=O)O1)=C\CN(C)C [Pat A (1), Pateamine A]
MCF-7 cells
  reversibility of antiproliferative effect: irreversible
[1]
  inhibition of HCV IRES-mediated (eIF4A-independent) translation: not inhibited
[2]
  IC50: ~54 nM
293T cells
  effect on polysome profile: depletion of polysomes

## CC(/C=C/C(C)=C/[C@@H]1Cc2nc(cs2)CCCCC(=O)O[C@@H](C)C/C(C)=C/C=C\C(=O)O1)=C\CN(C)C [compound 3, desmethyl, desamino-pateamine A]
eIF4AI; in the presence of 6XHis-4B
  effect on helicase activity of eIF4A and 4B: further stimulated
eIF4AI; with ATP
  effect on ATP-dependent RNA helicase activity of eIF4AI: dramatically increased
